Reference: patent US9701681B2, “Fused ring heteroaryl compounds and their use as Trk inhibitors” (CMG Pharmaceutical Co., Ltd., priority 2014, dated 2017)

Key:
KM12-luc cells = test: Cell proliferation assay (KM12); conditions: 72 hours exposure, read-out: IC50 (nM) Cell-based assay (KM12)
Experimental: (§1) Doxorubicin was purchased from Sigma Aldrich (D1515). All compounds were diluted in DMSO (Sigma Aldrich, D2650). AlamarBlue® cell viability reagent was purchased from Thermo Scientific (88952). CellTiter 96® AQueous One Solution Cell proliferation assay was purchased from Promega. KM12-luc cells were obtained from JCRB (National Institute of Health Sciences, Tokyo, Japan). They were maintained in DMEM medium (GIB-11965-118) supplemented with 10% fetal bovine serum (Gibco, 16000-044) and MEM Non-Essential Amino Acids Solution (Thermo Scientific, 11140-050). TF-1 cells were obtained from ATCC. They were maintained in RPMI medium (GIB-A10491) supplemented with 10% fetal bovine serum (Gibco, 16000-044), GM-CSF (Thermo Scientific, 11140-050), and β-NGF (R&D systems). Trypsin/EDTA was purchased from Gibco (GIB-25300-054, 0.05%). 96-well plates were purchased from Corning Inc.
(§2) The proliferation assay was performed for Chemical Compounds 1-61 s in media supplemented with 10% FBS, using AlamarBlue® cell viability reagent or CellTiter 96® AQueous One Solution Cell proliferation assay kit. Cells were cultured in humidified 37° C. incubator with 5% CO2. To evaluate the antiproliferation activity of compounds, TF-1 cells were adjusted to GM-CSF free media (RPMI, 10% FBS, and 1% penicillin-streptomycin) for 16 hr and were seeded in 96-well plates at 30,000 cells/well with medium (RPMI, 10% FBS, 1% penicillin-streptomycin and 10 ng/ml human β-NGF). KM12-luc were seeded at 10,000 cells per well into 96-well plates. After overnight incubation, serial dilutions of compounds were added to triplicate wells, and cells were exposed for 72 hours. The final concentration of DMSO was adjusted to 0.5% in media. Quantitation of cell growth was assessed using two kinds of reagent. 20 ul of AlamarBlue® reagent in an amount equal to 10% of the culture volume was added to each well and were incubated in humidified 37° C. incubator with 5% CO2 for 2 hr. Otherwise, 20 ul of CellTiter 96® reagent was added to each well and were incubated in the same conditions as previously described. Data were plotted, and GI50 values were calculated using GraphPad software. Table 1 below includes the results of the assays.

TRK A, B & C kinase = target: T1, TRK A, B & C kinase; test: TRK A, B & C kinase assay (ADP-Glo / HTRF KinEASE-TK); format: biochemical; conditions: ADP-Glo or HTRF KinEASE-TK kit, isoform not specified, read-out: IC50 (nM) Enzymatic assay
T1 construct: fused on or other part: Carna's Trk kinases are usually GST-tagged cytoplasmic domains
Experimental: ADP-Glo assay kit was purchased from Promega. poly (Glu, Tyr), Magnesium sulfate, Bovine serum albumin (BSA) and dimethylsulfoxide(DMSO) were purchased from Sigma-Aldrich. Tris-HCl buffer was purchased from BD Gentest. HTRF KinEASE-TK kit was purchased from cisbio. TRK A, B & C kinase was purchased from Carna bioscience.
Kinase assay was performed for Chemical Compounds 1-61 using two methods using luminescent ADP-Glo assay kit (Promega) and HTRF KinEASE-TK assay kit (cisbio). The luminescent ADP-Glo assay kit (Promega) measures ADP formed from a kinase reaction. ADP converted into ATP, which is then converted into light by Ultra-Glo luciferase. The HTRF KinEASE-TK assay kit (cisbio) measures tyrosine kinase activities using one substrate and a universal detection system.
ADP-Glo Assay Kit (Promega)
The protein kinase assay was performed for Chemical Compounds 1-61 at […] concentrations are 0.4 ng/ul of TrKA, 0.5 ng/ul of TrKB and 3 ng/ul of TrKC, respectively), 5 μL of 1 ug/ul stock solution of poly(glu, Tyr), 5 μL of compounds or assay buffer, 5 μL of ATP (125 μM stock solution).
The assay was started by incubating the reaction mixture in a 96-well plate at 30° C. for 1 hr. After the incubation, the assay was terminated by the addition of 25 […] Detection Reagent was added, and the 96-well plate was shaken and then incubated for additional 30 min at ambient temperature. The 96-well reaction plate was then read on an Enspire plate reader. The IC50 values were derived through a curve fitting using SigmaPlot.
HTRF KinEASE-TK Assay Kit (Cisbio)
The HTRF KinEASE-TK assay was performed for Chemical Compounds 1-61 in 384-well low volume microplate (Greiner). The HTRF KinEASE-TK assay format involves the two steps. The first step is kinase reaction step. This kinase reaction step was performed at RT (room temperature) in final volume of 10 ul according to the following assay reaction recipe: 10 ul of kinase mixture (Kinase (2 ul)+ATP (2 ul)+Substrate (2 ul)+Compound (4 ul)). Kinase final concentrations were 0.3 ng/ul of TRKA, 0.1 ng/ul of TRKB, 0.03 ng/ul of TRKC, respectively. ATP final concentrations were 14.7 uM (TRKA), 4.77 uM (TRKB), 25.6 uM (TRKC) respectively. TK-substrate final concentration was 0.3 ng/ul. The mixtures exposed to Dose response concentration (DRC) compound from 0 to 100 nM for 40 min. During the kinase reaction step, the kinase reaction was started by the addition of ATP. Kinase phosphorylates the substrate.
The second is detection step. 10 ul of detection reagents (5 ul Sa-XL 665 in EDTA+5 ul TK Antibody-Eu in EDTA) was added to kinase mixture. This step was performed at room temperature for 1 hr. The detection reagent detects phosphorylated substrates.
Finally 384-well reaction plate was then read on FlexStation 3 machine. The fluorescence was measured at 620 nm (Cryptate) and 665 nm (XL665). A ratio is calculated ([…]/620)×10^4 for each well. The IC50 value was derived through a curve fitting using GraphPad Prism. Table 1 below includes the results of the assays.

TF-1 cells = test: Cell proliferation assay (TF-1); conditions: 10 ng/ml human β-NGF, 72 hours exposure, read-out: IC50 (nM) Cell-based assay (TF-1)
Experimental: as §1, §2

Molecule | IC50 (KM12-luc cells) [nM] | IC50 (TRK A, B & C kinase) [nM] | IC50 (TF-1 cells) [nM]
Cc1nnc(-c2cnn3ccc(N4CCCC4c4cc(F)ccc4F)nc23)o1 (stereo not drawn) [Chemical Compound 1, 2-(5-(2-(2,5-difluorophenyl)pyrrolidin-1-yl)pyrazolo[1,5-a]pyrimidin-3-yl)-5-methyl-1,3,4-oxadiazole] | < 100 | < 10 | < 100
Cc1nnc(-c2cnn3ccc(N4CCCC4c4cc(F)ccc4F)nc23)s1 (stereo not drawn) [Chemical Compound 2, 2-(5-(2-(2,5-difluorophenyl)pyrrolidin-1-yl)pyrazolo[1,5-a]pyrimidin-3-yl)-5-methyl-1,3,4-thiadiazole] | < 100 | < 10 | < 10
CCc1nnc(-c2cnn3ccc(N4CCCC4c4cc(F)ccc4F)nc23)o1 (stereo not drawn) [Chemical Compound 3, 2-(5-(2-(2,5-difluorophenyl)pyrrolidin-1-yl)pyrazolo[1,5-a]pyrimidin-3-yl)-5-ethyl-1,3,4-oxadiazole] | < 100 | < 10 | < 10
CCc1nnc(-c2cnn3ccc(N4CCCC4c4cc(F)ccc4F)nc23)s1 (stereo not drawn) [Chemical Compound 4, 2-(5-(2-(2,5-difluorophenyl)pyrrolidin-1-yl)pyrazolo[1,5-a]pyrimidin-3-yl)-5-ethyl-1,3,4-thiadiazole] | < 100 | < 10 | < 10
CC(C)c1nnc(-c2cnn3ccc(N4CCCC4c4cc(F)ccc4F)nc23)o1 (stereo not drawn) [Chemical Compound 5, 2-(5-(2-(2,5-difluorophenyl)pyrrolidin-1-yl)pyrazolo[1,5-a]pyrimidin-3-yl)-5-isopropyl-1,3,4-oxadiazole] | < 10 | < 10 | < 10
CC(C)c1nnc(-c2cnn3ccc(N4CCCC4c4cc(F)ccc4F)nc23)s1 (stereo not drawn) [Chemical Compound 6, 2-(5-(2-(2,5-difluorophenyl)pyrrolidin-1-yl)pyrazolo[1,5-a]pyrimidin-3-yl)-5-isopropyl-1,3,4-thiadiazole] | < 10 | < 10 | < 10
Fc1ccc(F)c(C2CCCN2c2ccn3ncc(-c4nnc(C5CC5)o4)c3n2)c1 (stereo not drawn) [Chemical Compound 7, 2-cyclopropyl-5-(5-(2-(2,5-difluorophenyl)pyrrolidin-1-yl)pyrazolo[1,5-a]pyrimidin-3-yl)-1,3,4-oxadiazole] | < 100 | < 10 | < 10
Fc1ccc(F)c(C2CCCN2c2ccn3ncc(-c4nnc(C5CC5)s4)c3n2)c1 (stereo not drawn) [Chemical Compound 8, 2-cyclopropyl-5-(5-(2-(2,5-difluorophenyl)pyrrolidin-1-yl)pyrazolo[1,5-a]pyrimidin-3-yl)-1,3,4-thiadiazole] | < 100 | < 10 | < 10
CC(C)(C)c1nnc(-c2cnn3ccc(N4CCCC4c4cc(F)ccc4F)nc23)o1 (stereo not drawn) [Chemical Compound 9, 2-tert-butyl-5-(5-(2-(2,5-difluorophenyl)pyrrolidin-1-yl)pyrazolo[1,5-a]pyrimidin-3-yl)-1,3,4-oxadiazole] | < 10 | < 10 | < 10
CC(C)(C)c1nnc(-c2cnn3ccc(N4CCCC4c4cc(F)ccc4F)nc23)s1 (stereo not drawn) [Chemical Compound 10, 2-tert-butyl-5-(5-(2-(2,5-difluorophenyl)pyrrolidin-1-yl)pyrazolo[1,5-a]pyrimidin-3-yl)-1,3,4-thiadiazole] | < 10 | < 10 | < 10
Cc1nnc(-c2cnn3ccc(N4CCCC4c4cncc(F)c4)nc23)s1 (stereo not drawn) [Chemical Compound 11, 2-(5-(2-(5-fluoropyridin-3-yl)pyrrolidin-1-yl)pyrazolo[1,5-a]pyrimidin-3-yl)-5-methyl-1,3,4-thiadiazole] | < 100 | < 10 | < 100
CCc1nnc(-c2cnn3ccc(N4CCCC4c4cncc(F)c4)nc23)s1 (stereo not drawn) [Chemical Compound 12, 2-ethyl-5-(5-(2-(5-fluoropyridin-3-yl)pyrrolidin-1-yl)pyrazolo[1,5-a]pyrimidin-3-yl)-1,3,4-thiadiazole] | < 100 | < 10 | < 100
CC(C)c1nnc(-c2cnn3ccc(N4CCCC4c4cncc(F)c4)nc23)s1 (stereo not drawn) [Chemical Compound 13, 2-(5-(2-(5-fluoropyridin-3-yl)pyrrolidin-1-yl)pyrazolo[1,5-a]pyrimidin-3-yl)-5-isopropyl-1,3,4-thiadiazole] | < 100 | < 10 | < 100
Fc1cncc(C2CCCN2c2ccn3ncc(-c4nnc(C5CC5)s4)c3n2)c1 (stereo not drawn) [Chemical Compound 14, 2-cyclopropyl-5-(5-(2-(5-fluoropyridin-3-yl)pyrrolidin-1-yl)pyrazolo[1,5-a]pyrimidin-3-yl)-1,3,4-thiadiazole] | < 100 | < 10 | < 100
CC(C)(C)c1nnc(-c2cnn3ccc(N4CCCC4c4cncc(F)c4)nc23)s1 (stereo not drawn) [Chemical Compound 15, 2-tert-butyl-5-(5-(2-(5-fluoropyridin-3-yl)pyrrolidin-1-yl)pyrazolo[1,5-a]pyrimidin-3-yl)-1,3,4-thiadiazole] | < 100 | < 10 | < 100
O=C(/C=C/c1cnn2ccc(N3CCC[C@@H]3c3cc(F)ccc3F)nc12)N1CC[C@H](O)C1 [Chemical Compound 60, (E)-3-(5-((R)-2-(2,5-difluorophenyl)pyrrolidin-1-yl)pyrazolo[1,5-a]pyrimidin-3-yl)-1-((S)-3-hydroxypyrrolidin-1-yl)prop-2-en-1-one] | < 100 | < 10 | 
(E)-3-(5-((R)-2-(2,5-difluorophenyl)pyrrolidin-1-yl)pyrazolo[1,5-a]pyrimidin-3-yl)-1-((R)-3-hydroxypyrrolidin-1-yl)prop-2-en-1-one [Chemical Compound 59] | < 100 | < 10 | 
(R,E)-3-(5-(2-(2,5-difluorophenyl)pyrrolidin-1-yl)pyrazolo[1,5-a]pyrimidin-3-yl)-1-(4-hydroxypiperidin-1-yl)prop-2-en-1-one [Chemical Compound 57] | < 100 | < 10 | 
